Here are results for seven compounds from patent US20070161611A1, “POLYCYCLIC PHENOLIC COMPOUNDS AND USE IN TREATING VIRAL INFECTIONS” (priority 2005, published 2007).

For data set [1], the system named is BVDV-NADL. Kind of data set: Protection of MDBK cells from BVDV-induced cytopathicity (MTS/PMS CPE reduction assay). The data set is classed as cell-based. The conditions noted are these: Bovine viral diarrhea virus isolates and strains. The protocol:
Cell proliferation was monitored using a non-radioactive MTS/PMS assay (MTS: 3-(4,5-dimethylthiazol-2-yl)-5-(3-carboxymethoxy phenyl)-2-(4-sulfophenyl)-2H-tetrazolium (Promega, Madison, Wis.)); (PMS: phenazine methosulfate (Sigma Aldrich, St. Louis, Mo.)). MDBK cells were seeded into 96-well plates at a density of approximately 2×10^4 cells per well. The cultures were incubated 3-24 hours to permit attachment of the cells to the plates prior to infection and addition of compounds. The appropriate PFU of BVDV-NADL were added to each well to achieve the desired MOI (<1 or >0.001); the cells were exposed to the virus diluted at the appropriate concentration in phosphate buffered saline (PBS) containing 1% horse serum (HS) for 1 to 2 hours. The virus was then removed and the cells were washed with PBS containing 1% HS. The test compounds were serially diluted in cell growth media with 2% HS and added to the cells. The plates were incubated at 37° C. in the presence of 5% CO2 for 3-4 days. Uninfected cells and infected, untreated cells (without compound) were used as additional controls. The final volume was 100 μl per well. After the 3-4 days of incubation a volume of 20 μL of the combined MTS/PMS solution was added into each well of the 96-well assay plate containing 100 μL of cells in culture medium to obtain final concentrations of 333 μg/ml MTS 5 and 25 μM PMS. A 96-well microtiter spectrophotometer plate reader was used to measure the absorbance at 490 nm after incubation of the 96-well plate for 1 to 4 hours at 37° C. in a humidified, 5% CO2 atmosphere. The mean absorbance in each set of triplicate wells was determined. Antiviral activity was measured as MTS conversion relative to the differential between the conversion for cell (non-infected) and viral (non-drug-treated) controls. The cytopathic effect (CPE) reduction for each concentration of the tested compound, which correlated with antiviral activity, was calculated as follows. % CPE reduction=[(D−ND)/(NI−ND)]×100, where D (drug-treated)=the absorbance of drug-treated cells; ND (non drug-treated)=the absorbance of untreated infected cells; and NI (non-infected)=the absorbance of non-infected cells. EC50 represents the concentration of drug that protects 50% of the cells from BVDV induced cytotoxicity (50% CPE reduction). CC50 equals the concentration that affects the viability of 50% of the MDBK cells.
The compounds were combined at fixed molar ratios and serially diluted 2-fold in cell growth medium to examine a range of 6 fixed ratio combinations including those having about an equipotent antiviral dose to a combination in which one test compound was used at a sub-optimal level (e.g., sub-therapeutic).

The nature of data set [2]: in vitro. Particulars: human.
For data set [3], the system named is HIV-1RF. Kind of data set: Anti-HIV-1 activity in CEM-SS cells (inhibition of HIV-1 induced cytotoxicity). The conditions noted are these: Human immunodeficiency virus 1, CEM-SS; for EC50: read-out: CEM-SS/HIV-1RF EC50.
Data set [4] relates to HCV sub-genomic replicon genotype 1b. Kind of data set: HCV sub-genomic replicon assay in AVA5 cells (HCV RNA dot blot hybridization). The conditions noted are these: for SI (Selectivity Index): HCV replicon genotype 1b; for EC50: Hepatitis C virus, AVA5 cells, once daily for three days, HCV RNA 24 h after last dose. The data set is classed as cell-based, Hepatitis C Virus.
The nature of data set [5]: Toxicity in AVA5 replicon cells (neutral red dye uptake). The conditions noted are these: human, AVA5 cells (HCV RNA-replicating, Huh7-derived). The protocol: The antiviral activity of test compounds were assayed in the stably HCV RNA-replicating cell line, AVA5, derived by transfection of the human hepatoblastoma cell line, Huh7 (Blight, et al., 2000, Science 290: 1972). […] Intracellular HCV RNA levels and cytotoxicity were assessed 24 hours after the last dose of compound.
Assays were conducted using 4-5 doses of test compound. […] HCV RNA levels were assessed 24 hours after the last dose of compound using a dot blot hybridization assay. Both HCV and β-actin RNA levels in triplicate treated cultures were expressed as a percentage of the mean levels of RNA detected in untreated cultures (6 total). β-Actin RNA levels were used both as a measure of toxicity, and to normalize the amount of cellular RNA in each sample. Toxicity analyses were performed on separate plates from those used for the antiviral assays. Cells for the toxicity analyses were cultured and treated with test compounds with the same schedule and under identical culture conditions as used for the antiviral evaluations. Uptake of neutral red dye was used to determine the relative level of toxicity 24 hours following the last treatment. The absorbance of internalized dye at 510 nm (A510) was used for the quantitative analysis. Values in test cultures were compared to 9 cultures of untreated cells maintained on the same plate as the test cultures.

Data set [6] deals with CEM-SS cells. Nature of the data set: Cytotoxicity in CEM-SS cells. The conditions noted are these: at 300 μM.
For data set [7], the system named is BVDV strain NADL. Kind of data set: Inhibition of viral release in BVDV-infected MDBK cells (plaque titration of supernatant). The data set is classed as cell-based, Bovine Viral Diarrhea virus. The conditions noted are these: 24 h treatment. The protocol: (§1) Madin-Darby Bovine Kidney Cells (MDBK) (American Type Culture Collection (ATCC) No. CCL-22, Manassas, Va) were seeded into 96-well plates at a density of approximately 2×10^4 cells per well. The cell cultures were incubated for 3-24 hours to allow for attachment of cells to the culture plates prior to infection and addition of compounds. BVDV strain NADL (ATCC No. VR-534) plaque forming units (PFU) were added to each well to achieve a multiplicity of infection (MOI) ranging from about 1 or about 0.001, and allowed to remain in contact with the cultured cells for 1 to 2 hours. The virus was then removed and the cells were washed with growth medium (e.g., Dulbecco's Modified Eagles Medium (DMEM)) containing 5% horse serum (HS), or with phosphate buffered saline (PBS), 1% HS, and 1 mM MgCl2. The test compounds, dissolved in cell growth media with 2% HS, were then added to the BVDV-infected cells or uninfected cells (cytotoxicity determination) at various concentrations. The plates were incubated at 37° C., 5% CO2 for 24 hours (i.e., about one cycle of BVDV replication). The plates were then centrifuged at low speed and the supernatant was serially diluted for use in infecting a new monolayer of cells in 12-well plates. […] The virus plaques formed in MDBK cell cultures were quantified by a manual count and a titer was determined.

A short description of data set [8]: Cytotoxicity in uninfected MDBK cells after 24 h treatment (OD490). The data set is classed as cell-based, bovine. Particulars: bovine, compared to control, read-out: % Cytotoxicity of Compound 20 (1 μM). The protocol: as §1
The subject of data set [9] is MDBK cells. Described as above. The conditions noted are these: untreated control OD490 1.2. The data set is classed as cell-based, bovine. The protocol: as §1
Data set [10] can be described thus: in vitro. The data set is classed as cell-based. Particulars: bovine. The protocol: Cell proliferation was monitored using a non-radioactive MTS/PMS assay (MTS: 3-(4,5-dimethylthiazol-2-yl)-5-(3-carboxymethoxy phenyl)-2-(4-sulfophenyl)-2H-tetrazolium (Promega, Madison, Wis.)); (PMS: phenazine methosulfate (Sigma Aldrich, St. Louis, Mo.)). MDBK cells were seeded into 96-well plates at a density of approximately 2×10^4 cells per well. The cultures were incubated 3-24 hours to permit attachment of the cells to the plates prior to infection and addition of compounds. […] A 96-well microtiter spectrophotometer plate reader was used to measure the absorbance at 490 nm after incubation of the 96-well plate for 1 to 4 hours at 37° C. in a humidified, 5% CO2 atmosphere. The mean absorbance in each set of triplicate wells was determined. Antiviral activity was measured as MTS conversion relative to the differential between the conversion for cell (non-infected) and viral (non-drug-treated) controls. The cytopathic effect (CPE) reduction for each concentration of the tested compound, which correlated with antiviral activity, was calculated as follows. % CPE reduction=[(D−ND)/(NI−ND)]×100, where D (drug-treated)=the absorbance of drug-treated cells; ND (non drug-treated)=the absorbance of untreated infected cells; and NI (non-infected)=the absorbance of non-infected cells. […]

For data set [11], the system named is non-cytopathic BVDV Pe515. Kind of data set: Non-cytopathic BVDV genomic RNA reduction in MDBK cells (qRT-PCR). In kind it is cell-based. Particulars: Bovine viral diarrhea virus isolates and strains, 72 h, MOI 0.001, three day treatment, FIG. 1, read-out: EC50 of ncp BVDV genomic replication. The protocol:
MDBK cells were seeded into 6-or 96-well plates at a density of approximately 2×10^4 cells per well. The cultures were incubated 3-24 hours to permit attachment of the cells to the plates prior to infection and addition of compounds. The appropriate number of non-cytopathic BVDV Pe515 (ncp BVDV) PFU were added to each well to achieve the desired MOI (0.001); the cells were contacted with the virus diluted at the appropriate concentration in PBS containing 1% HS and 1 mM MgCl2 for 1 to 2 hours. The test compounds dissolved in cell growth media with 2% HS were added to the cells at varying concentrations. The plates were incubated at 37° C. in the presence of 5% CO2 for 3-4 days. […] Real-time quantitation was done using the Quantitative One Step Reverse Transcriptase (RT) Polymerase Chain Reaction (qRT-PCR) MasterMix Plus for SYBR® Green I (Eurogentec, San Diego, calif.). […] The following primers were used for the one step RT-PCR SYBR quantitation assay: forward primer 5′-[…]-3′ (SEQ ID NO:1) and reverse primer 5′-[…]-3′ (SEQ ID NO:2). […] Well-to-well variations in background fluorescence were corrected for by use of a ROX-labeled passive reference, included as part of the Eurogentec One Step qRT-PCR Master Mix for each sample. Amplification curves were analyzed by using empirically established cycle threshold and baseline settings for the assay. […]

The mark [12] stands for this setting: MOI of 0.01, monotherapy run in parallel to combination studies, read-out: EC50 (monotherapy).
Where [13] appears, read: MOI = 0.05, 3-4 days, read-out: EC50.

Where two headings read alike, the source gives them in different places.

Take `C[C@@]1(O)[C@H](O)[C@@H](CO)O[C@H]1n1ccc(N)nc1=O` [NM107, 2′-C-methyl cytidine, reference compound]: in data set [1] (setting [12]), the EC50 was 0.99 µM.

Compound `CO/N=C1\CC[C@H]2[C@@H]3CCc4cc(O)c(C56CC7CC(CC(C7)C5)C6)cc4[C@H]3CC[C@]12C` [Compound 5] had a CC50 in [2] of 17.3 µM. The EC50 in data set [3] worked out at 5.8 µM.

For the compound `C[C@]12CC[C@@H]3c4ccc(OS(=O)(=O)O)cc4CC[C@H]3[C@@H]1CC[C@H]2O` [Compound 16, 17(α)-estradiol-3-sulfate sodium], in [4], the “SI (Selectivity Index)” value was above 196 and the EC50 was 0.51 µM. Further, the CC50 at 3 days in data set [5] is above 100 µM. Moreover, the CC50 in data set [2] (CEM-SS cells) is above 300 µM. In addition, the “cytotoxicity shown by the compound” value in [6] is “no cytotoxicity”. For the same compound, the EC50 in data set [3] was above 300 µM. In addition, in data set [3] (read-out: inhibition of HIV-1 induced cytotoxicity in CEM-SS cells), the inhibition at 300 µM is 20%.

On to `C[C@]12CC[C@@H]3c4cc(C56CC7CC(CC(C7)C5)C6)c(O)cc4CC[C@H]3[C@@H]1CC[C@@H]2O` [Compound 20, 17(β)-2-(1-adamantyl)-estra-1,3,5(10)-triene-3,17-diol], for which, in data set [7] (untreated control 7.0 × 10^5 PFU/mL), the “Viral titer in presence of 1 μM of Compound 20” value is reported as 2.2 × 10^5 PFU/mL. In [7] (Bovine viral diarrhea virus isolates and strains, MDBK, compared to control, read-out: % Inhibition of Viral Release by Compound 20 at 1 μM), the inhibition at 1 µM is 69%. Further, the cytotoxicity at 24 h, 1 µM in [8] was 0%. The “OD490 - 1 μM Compound 20” value in data set [9] is recorded as 1.2. The EC50 in [1] (MOI 0.01, read-out: EC50) was 0.34 ± 0.02 µM; in [1] (MOI 0.02, read-out: EC50), 0.51 µM; in data set [1] (MOI 0.03, read-out: EC50) it was 0.46 µM; in data set [1] (setting [13]), 0.8 ± 0.22 µM; in data set [11] it was around 0.15 µM; in data set [4], 0.043 µM. For the same compound, the EC50 in data set [3] is 8.6 µM. Further, the CC50 in data set [10] was found to be 40.1 ± 25.1 µM; in [2], 14.3 µM. Further, in data set [4], the “SI (Selectivity Index)” value came to 188. The CC50 at 3 days in data set [5] is 8.1 µM.

As for `C[C@]12CCC3c4cc(C56CC7CC(CC(C7)C5)C6)c(O)cc4CCC3C1CCC2=O` (stereo partly shown) [Compound 2], the EC50 is 0.23 µM in [1] (setting [12]) and 19.7 µM in data set [3]. In data set [2], this compound yielded a CC50 above 100 µM.

Regarding `CCCC(=O)O[C@H]1CN2CC[C@H](O)[C@@H]2[C@@H](O)[C@@H]1O` [Celgosivir, [1S-(1α,6β,7α,8β,8αβ)]-octahydro-1,6,7,8-indolizinetetrol 6-butanoate, reference compound], the EC50 in [1] (setting [12]) is 2.2 µM.

Consider `C[C@]12CC[C@@H]3c4cc(C56CC7CC(CC(C7)C5)C6)c(O)cc4CC[C@H]3[C@@H]1CC/C2=N\N` [Compound 4], for which the EC50 in data set [1] (setting [13]) amounted to 3.99 ± 0.99 µM; in data set [4], 0.068 µM. Moreover, in data set [10], the CC50 came to 34.5 ± 23.2 µM. Further, the “SI (Selectivity Index)” value in data set [4] was 353. Further, the CC50 at 3 days in [5] is 24 µM.
